Data as given in ChEMBL document CHEMBL3393031, “Inhibitory constituents of Sophora tonkinensis on nitric oxide production in RAW 264.7 macrophages” (Bioorg Med Chem Lett, 2015).

Key:
RAW264.7 [1] = experiment: Cytotoxicity against mouse RAW264.7 cells after 24 hrs by MTT assay; assay type: cell-based; conditions: raw264.7, 24 h
RAW264.7 [2] = experiment: Antiinflammatory activity in mouse RAW264.7 cells assessed as inhibition of LPS-induced NO production after 24 hrs by Griess assay; assay type: functional, cell-based; conditions: RAW264.7, 24 h

Row | SMILES | IC50 (RAW264.7 [2]) [µM] | Activity (RAW264.7 [1])
1 | O=c1cc(-c2ccc(O)cc2)oc2cc(O)ccc12 | > 50 | Non-toxic
2 | CC(C)=CCc1cc([C@@H]2CC(=O)c3ccc(O)c(CC=C(C)C)c3O2)cc(CC=C(C)C)c1O | 28.1 | Non-toxic
3 | COc1cc([C@H]2OC[C@H]3[C@@H]2CO[C@@H]3c2cc(OC)c(O)c(OC)c2)cc(OC)c1O [SYRINGARESINOL] | > 50 | Non-toxic
4 | COc1cc([C@H]2OC[C@@H]3C(c4cc(OC)c(O)c(OC)c4)OC[C@H]23)ccc1O (some centres not stated) [MEDIORESINOL] | 41 | Non-toxic
5 | N=C(N)NN [PIMAGEDINE] | 18.7 | Non-toxic

Continued, in another order:

Row | IC50 (RAW264.7 [2]) [µM] | SMILES | Activity (RAW264.7 [1])
6 | 33 | C/C=C/C(=O)OC[C@H]1O[C@@H](Oc2ccc3c(c2)OC[C@H]2c4cc5c(cc4O[C@@H]32)OCO5)[C@H](O)[C@@H](O)[C@@H]1O | Non-toxic
7 | 45.1 | COc1cc([C@@H]2OC[C@@H]3[C@H]2CO[C@H]3c2ccc(O)c(OC)c2)ccc1O [(+)-PINORESINOL] | Non-toxic
8 | > 50 | COc1ccc(-c2coc3cc(O)ccc3c2=O)cc1O [CALYCOSIN] | Non-toxic
9 | > 50 | O=c1c(-c2ccc(O)cc2)coc2cc(O)cc(O)c12 [GENISTEIN] | Non-toxic
10 | 27 | Oc1ccc2c(c1)OC[C@H]1c3cc4c(cc3O[C@@H]21)OCO4 [MAACKIAIN] | Non-toxic
11 | 13.6 | CC(C)=CCc1cc([C@@H]2CC(=O)c3ccc(O)c(CC=C(C)C)c3O2)cc2c1OC(C)(C)C=C2 | Non-toxic
